{
  "source": "patent US12049439B2",
  "about": "(OrsoBio, Inc., priority 2018, dated 2024)",
  "tested_on": "PC-3 cells",
  "experiment": "PC-3 Oxygen Rate Consumption (OCR) Assay",
  "type": "cell-based",
  "conditions": "Homo sapiens, 0.05 h, medium with 2% FBS, OCR at 3-min post-injection normalized to % increase over DMSO-treated cells, concentration for half-maximal OCR increase, read-out: EC50-PC3-OCR-FBS-3min",
  "experimental": "PC-3 Oxygen Rate Consumption (OCR) Assay Procedure:\nOne day before the assay, PC-3 cells were seeded at 2.5×10^4 cells/160 μL/well in a 96-well XFe96 cell plate, part of a FlexPak containing a cell plate and a cartridge (Agilent, Sunnyvale, CA). The cells were incubated overnight at 37° C. in a 5% CO2 and 90% humidity incubator with F12K culture medium (ThermoFisher Scientific/Invitrogen, Grand Island, NY) containing 10% FBS and 1% penicillin/streptomycin. On the day of the assay, the cells were washed twice with 300 µL/well Medium A [XF assay medium (Agilent) supplemented 10 mM glucose, 1 mM pyruvate, and 2% fetal bovine serum (FBS)], and incubated with 175 µL/well Media A for 1 hr in a 37° C., non-CO2 incubator prior to the measurement of cellular respiration. Compounds of interests were prepared in 1:2 serial dilutions with 100% DMSO and then further diluted into 8× working stock with Media A prior to being loaded to Injection Port A on a XFe96 Analyzer (Agilent). Six replicates were used for each treatment. The cartridge was calibrated in the XFe96 Analyzer 30 minute prior to the measurement of cellular respiration. Basal levels of OCR were measured three times, each using a “3-minute mixing/3-minute measurement” program. The compound effect was measured immediately after compound injection from Injection Port A, and OCR was monitored continuously 10 times, each time using a “1-minute mixing/2-minute measurement” program for a total of 30 minutes post compound injection. The level of OCR at 3-min post-injection was normalized to % increase over DMSO-treated cells. The concentration of compound required to reach the half-maximal OCR increase was defined as EC50 Table 2 contains PC3 OCR EC50 values for the compounds disclosed.",
  "data": [
    {"compound": "CCS(=O)(=O)c1ccc(S(=O)(=O)Nc2cc(C(F)(F)F)ccc2C(=O)NC23CC(C(F)(F)F)(C2)C3)cc1", "note": "[Example 24, 2-((4-(ethylsulfonyl)phenyl)sulfonamido)-4-(trifluoromethyl)-N-(3-(trifluoromethyl)bicyclo[1.1.1]pentan-1-yl)benzamide]", "values": [
      {"measurement": "EC50", "value": 3.32, "unit": "µM"}
    ]},
    {"compound": "CCS(=O)(=O)c1ccc(S(=O)(=O)Nc2cc(C(F)(F)F)ccc2C(=O)NC23CC(C#N)(C2)C3)cc1", "note": "[Example 25, N-(3-cyanobicyclo[1.1.1]pentan-1-yl)-2-((4-(ethylsulfonyl)phenyl)sulfonamido)-4-(trifluoromethyl)benzamide]", "values": [
      {"measurement": "EC50", "value": "≥ 50", "unit": "µM"}
    ]},
    {"compound": "CCS(=O)(=O)c1ccc(S(=O)(=O)Nc2cc(C(F)(F)F)ccc2C(=O)NC23CC(F)(C2)C3)cc1", "note": "[Example 26, 2-((4-(ethylsulfonyl)phenyl)sulfonamido)-N-(3-fluorobicyclo[1.1.1]pentan-1-yl)-4-(trifluoromethyl)benzamide]", "values": [
      {"measurement": "EC50", "value": 6.94, "unit": "µM"}
    ]},
    {"compound": "CCS(=O)(=O)c1ccc(S(=O)(=O)Nc2cc(C(F)(F)F)ccc2C(=O)NC23CC(C2)C3)cc1", "note": "[Example 27, N-(bicyclo[1.1.1]pentan-1-yl)-2-((4-(ethylsulfonyl)phenyl)sulfonamido)-4-(trifluoromethyl)benzamide]", "values": [
      {"measurement": "EC50", "value": 4.5, "unit": "µM"}
    ]},
    {"compound": "O=C(NC12CC(C(F)(F)F)(C1)C2)c1ccc(F)cc1NS(=O)(=O)c1ccc(S(=O)(=O)C2CC2)cc1", "note": "[Example 28, 2-((4-(cyclopropylsulfonyl)phenyl)sulfonamido)-4-fluoro-N-(3-(trifluoromethyl)bicyclo[1.1.1]pentan-1-yl)benzamide]", "values": [
      {"measurement": "EC50", "value": 2.76, "unit": "µM"}
    ]},
    {"compound": "O=C(NC12CC(C(F)(F)F)(C1)C2)c1ccc(C(F)(F)F)cc1NS(=O)(=O)c1ccc(N2CCCS2(=O)=O)cc1", "note": "[Example 29, 2-((4-(1,1-dioxidoisothiazolidin-2-yl)phenyl)sulfonamido)-4-(trifluoromethyl)-N-(3-(trifluoromethyl)bicyclo[1.1.1]pentan-1-yl)benzamide]", "values": [
      {"measurement": "EC50", "value": 8.8, "unit": "µM"}
    ]},
    {"compound": "CN(C)S(=O)(=O)c1ccc(S(=O)(=O)Nc2cc(C(F)(F)F)ccc2C(=O)NC23CC(c4ccccc4)(C2)C3)cc1", "note": "[Example 30, 2-((4-(N,N-dimethylsulfamoyl)phenyl)sulfonamido)-N-(3-phenylbicyclo[1.1.1]pentan-1-yl)-4-(trifluoromethyl)benzamide]", "values": [
      {"measurement": "EC50", "value": 1.11, "unit": "µM"}
    ]},
    {"compound": "O=C(NC12CC(c3ccccc3)(C1)C2)c1ccc(C(F)(F)F)cc1NS(=O)(=O)c1ccc(OC(F)(F)F)cc1", "note": "[Example 31, N-(3-phenylbicyclo[1.1.1]pentan-1-yl)-2-((4-(trifluoromethoxy)phenyl)sulfonamido)-4-(trifluoromethyl)benzamide]", "values": [
      {"measurement": "EC50", "value": 0.595, "unit": "µM"}
    ]},
    {"compound": "N#CC12CC(NC(=O)c3ccc(C(F)(F)F)cc3NS(=O)(=O)c3ccc(OC(F)(F)F)cc3)(C1)C2", "note": "[Example 32, N-(3-cyanobicyclo[1.1.1]pentan-1-yl)-2-((4-(trifluoromethoxy)phenyl)sulfonamido)-4-(trifluoromethyl)benzamide]", "values": [
      {"measurement": "EC50", "value": 1.52, "unit": "µM"}
    ]},
    {"compound": "O=C(NC12CC(C(F)(F)F)(C1)C2)c1ccc(C(F)(F)F)cc1NS(=O)(=O)c1ccc(S(=O)(=O)C(F)(F)F)cc1", "note": "[Example 33, 4-(trifluoromethyl)-N-(3-(trifluoromethyl)bicyclo[1.1.1]pentan-1-yl)-2-((4-((trifluoromethyl)sulfonyl)phenyl)sulfonamido)benzamide]", "values": [
      {"measurement": "EC50", "value": 1.93, "unit": "µM"}
    ]},
    {"compound": "O=C(NC12CC(C(F)(F)F)(C1)C2)c1ccc(C(F)(F)F)cc1NS(=O)(=O)c1ccc(S(=O)(=O)C(F)F)cc1", "note": "[Example 34, 2-((4-((difluoromethyl)sulfonyl)phenyl)sulfonamido)-4-(trifluoromethyl)-N-(3-(trifluoromethyl)bicyclo[1.1.1]pentan-1-yl)benzamide]", "values": [
      {"measurement": "EC50", "value": 2.71, "unit": "µM"}
    ]},
    {"compound": "N#CC12CC(NC(=O)c3ccc(C(F)(F)F)cc3NS(=O)(=O)c3ccc4ccccc4c3)(C1)C2", "note": "[Example 35, N-(3-cyanobicyclo[1.1.1]pentan-1-yl)-2-(naphthalene-2-sulfonamido)-4-(trifluoromethyl)benzamide]", "values": [
      {"measurement": "EC50", "value": 1.21, "unit": "µM"}
    ]},
    {"compound": "O=C(NC12CC(c3ccccc3)(C1)C2)c1ccccc1NS(=O)(=O)c1ccc(-n2ccnc2)cc1", "note": "[Example 36, 2-((4-(1H-imidazol-1-yl)phenyl)sulfonamido)-N-(3-phenylbicyclo[1.1.1]pentan-1-yl)benzamide]", "values": [
      {"measurement": "EC50", "value": "≥ 20", "unit": "µM"}
    ]},
    {"compound": "O=C(NC12CC(C1)C2)c1ccc(C(F)(F)F)cc1NS(=O)(=O)c1ccccc1", "note": "[Example 37, N-(bicyclo[1.1.1]pentan-1-yl)-2-(phenylsulfonamido)-4-(trifluoromethyl)benzamide]", "values": [
      {"measurement": "EC50", "value": 2.1, "unit": "µM"}
    ]},
    {"compound": "O=C(NC12CC(C(F)(F)F)(C1)C2)c1ccc(C(F)(F)F)cc1NS(=O)(=O)c1ccccc1", "note": "[Example 38, 2-(phenylsulfonamido)-4-(trifluoromethyl)-N-(3-(trifluoromethyl)bicyclo[1.1.1]pentan-1-yl)benzamide]", "values": [
      {"measurement": "EC50", "value": 0.478, "unit": "µM"}
    ]},
    {"compound": "Cn1cc(S(=O)(=O)Nc2cc(C(F)(F)F)ccc2C(=O)NC23CC(c4ccccc4)(C2)C3)cn1", "note": "[Example 39, 2-((1-methyl-1H-pyrazole)-4-sulfonamido)-N-(3-phenylbicyclo[1.1.1]pentan-1-yl)-4-(trifluoromethyl)benzamide]", "values": [
      {"measurement": "EC50", "value": 7.34, "unit": "µM"}
    ]},
    {"compound": "N#CC12CC(NC(=O)c3ccc(C(F)(F)F)cc3NS(=O)(=O)c3c(Cl)cc(Cl)cc3Cl)(C1)C2", "note": "[Example 40, N-(3-cyanobicyclo[1.1.1]pentan-1-yl)-2-((2,4,6-trichlorophenyl)sulfonamido)-4-(trifluoromethyl)benzamide]", "values": [
      {"measurement": "EC50", "value": 6.58, "unit": "µM"}
    ]},
    {"compound": "N#CC12CC(NC(=O)c3ccc(C(F)(F)F)cc3NS(=O)(=O)c3ccccc3)(C1)C2", "note": "[Example 41, N-(3-cyanobicyclo[1.1.1]pentan-1-yl)-2-(phenylsulfonamido)-4-(trifluoromethyl)benzamide]", "values": [
      {"measurement": "EC50", "value": 2.16, "unit": "µM"}
    ]},
    {"compound": "CN(C)S(=O)(=O)c1ccc(S(=O)(=O)Nc2cc(C(F)(F)F)ccc2C(=O)NC23CC(C#N)(C2)C3)cc1", "note": "[Example 42, N-(3-cyanobicyclo[1.1.1]pentan-1-yl)-2-((4-(N,N-dimethylsulfamoyl)phenyl)sulfonamido)-4-(trifluoromethyl)benzamide]", "values": [
      {"measurement": "EC50", "value": 27.5, "unit": "µM"}
    ]},
    {"compound": "O=C(NC12CC(c3ccccc3)(C1)C2)c1ccc(C(F)(F)F)cc1NS(=O)(=O)c1ccc(-n2cnnn2)cc1", "note": "[Example 43, 2-((4-(1H-tetrazol-1-yl)phenyl)sulfonamido)-N-(3-phenylbicyclo[1.1.1]pentan-1-yl)-4-(trifluoromethyl)benzamide]", "values": [
      {"measurement": "EC50", "value": 2.99, "unit": "µM"}
    ]},
    {"compound": "O=C(NC12CC(c3ccccc3)(C1)C2)c1ccc(C(F)(F)F)cc1NS(=O)(=O)c1ccc(S(=O)(=O)C(F)F)cc1", "note": "[Example 44, 2-((4-((difluoromethyl)sulfonyl)phenyl)sulfonamido)-N-(3-phenylbicyclo[1.1.1]pentan-1-yl)-4-(trifluoromethyl)benzamide]", "values": [
      {"measurement": "EC50", "value": 1.16, "unit": "µM"}
    ]},
    {"compound": "CS(=O)(=O)c1ccc(S(=O)(=O)Nc2cc(C(F)(F)F)ccc2C(=O)NC23CCC(CC2)C3)cc1", "note": "[Example 45, N-(bicyclo[2.2.1]heptan-1-yl)-2-((4-(methylsulfonyl)phenyl)sulfonamido)-4-(trifluoromethyl)benzamide]", "values": [
      {"measurement": "EC50", "value": 5.45, "unit": "µM"}
    ]},
    {"compound": "CS(=O)(=O)c1ccc(S(=O)(=O)Nc2cc(Br)ccc2C(=O)NC23CC(C(F)(F)F)(C2)C3)cc1", "note": "[Example 46, 4-bromo-2-((4-(methylsulfonyl)phenyl)sulfonamido)-N-(3-(trifluoromethyl)bicyclo[1.1.1]pentan-1-yl)benzamide]", "values": [
      {"measurement": "EC50", "value": 3.48, "unit": "µM"}
    ]},
    {"compound": "CS(=O)(=O)Nc1cc(Br)ccc1C(=O)NC12CC(C1)C2", "note": "[Example 47, N-(bicyclo[1.1.1]pentan-1-yl)-4-bromo-2-(methylsulfonamido)benzamide]", "values": [
      {"measurement": "EC50", "value": 17.3, "unit": "µM"}
    ]},
    {"compound": "CS(=O)(=O)Nc1cc(Br)ccc1C(=O)NC12CC(C(F)(F)F)(C1)C2", "note": "[Example 48, 4-bromo-2-(methylsulfonamido)-N-(3-(trifluoromethyl)bicyclo[1.1.1]pentan-1-yl)benzamide]", "values": [
      {"measurement": "EC50", "value": 5.81, "unit": "µM"}
    ]},
    {"compound": "CS(=O)(=O)Nc1cc(Br)ccc1C(=O)NC12CC(c3ccccc3)(C1)C2", "note": "[Example 49, 4-bromo-2-(methylsulfonamido)-N-(3-phenylbicyclo[1.1.1]pentan-1-yl)benzamide]", "values": [
      {"measurement": "EC50", "value": 4.99, "unit": "µM"}
    ]},
    {"compound": "O=C(NC12CC(C1)C2)c1ccc(F)cc1NS(=O)(=O)C1CC1", "note": "[Example 50, N-(bicyclo[1.1.1]pentan-1-yl)-2-(cyclopropanesulfonamido)-4-fluorobenzamide]", "values": [
      {"measurement": "EC50", "value": "≥ 100", "unit": "µM"}
    ]},
    {"compound": "NC(=O)c1ccc(S(=O)(=O)Nc2cc(C(F)(F)F)ccc2C(=O)NC23CC(c4ccccc4)(C2)C3)cc1", "note": "[Example 51, 2-((4-carbamoylphenyl)sulfonamido)-N-(3-phenylbicyclo[1.1.1]pentan-1-yl)-4-(trifluoromethyl)benzamide]", "values": [
      {"measurement": "EC50", "value": 28.8, "unit": "µM"}
    ]},
    {"compound": "NC(=O)c1ccc(S(=O)(=O)Nc2cc(C(F)(F)F)ccc2C(=O)NC23CC(C2)C3)cc1", "note": "[Example 52, N-(bicyclo[1.1.1]pentan-1-yl)-2-((4-carbamoylphenyl)sulfonamido)-4-(trifluoromethyl)benzamide]", "values": [
      {"measurement": "EC50", "value": 200, "unit": "µM"}
    ]}
  ]
}
